In US20250249056A1, “CANCER THERAPIES COMPRISING A NUCLEAR EXPORT INHIBITOR AND AN ONCOLYTIC VIRUS” (priority 2022, published 2025):
“Also recorded” adds a separate entry of the source.

Tests used:
MYXV [1] = assay: Viral replication assay: progeny virus titration on permissive rabbit RK13 cells; assay type: cell-based, myxoma virus; settings: PANC-1, Colo205, and MDA-MB435; selinexor; 24, 48, 72 h
Experimental: Viral titers in different human cancer cell lines were determined using a viral replication assay. Cells were seeded in 24-well plates (2×10^5 cells/well). The next day, the cells were treated with different concentrations of leptomycin B (LMB) or selinexor diluted in DMEM for 1 hour. MYXV was added to the cells and incubated for one hour at 37° C. After 1 hour, the unbound viruses were washed away using DMEM, and DMEM with LMB or selinexor was added to the cells. Cells were harvested in DMEM without LMB or selinexor at the indicated time points. After harvesting the cells, they were stored at −80° C. until processing. Samples were subjected to three freeze/thaw cycles and one-minute sonification to lyse cells and release the viral particles. Afterwards, different dilutions were prepared in DMEM and plated on rabbit RK13 and foci were counted after 48 hours using a fluorescent microscope. All assays and dilutions were performed in triplicate.

Colo205 cells = assay: CyQUANT NF cell proliferation assay (Colo205); assay type: cell-based, human; settings: after 24 hours compared to mock treated cells, selinexor 0.1 or 1 μM, multiple MOI
Experimental: Cell Proliferation Assay: To measure cancer cell proliferation based on the amount of cellular DNA, the CyQuant™ NF Cell Proliferation Assay Kit (Invitrogen) was used according to the manufacturer's instructions. Briefly, PANC-1, HT29, MDA-MB435, and Colo205 cells were seeded in a 96-well plate (1×10^4 cells/well) and left to attach to the wells overnight. The next day, the medium was removed and replaced with 50 μL medium containing different concentrations of selinexor (0-1 μM). After an hour of incubation with selinexor, the virus was added to different MOIs (0.5-5), bringing the end volume of every well up to 100 μL. A 1× dye binding solution was prepared by adding 9 μL of the CyQuant™ NF Dye reagent in 4.5 mL Hank's Balanced Salt Solution (HBSS) buffer (Invitrogen). After 24, 48, 72, and 96 hours of incubation, the medium was removed from the cells and 50 μL 1× dye solution was added to all wells. The microplate was covered to protect it from light and was incubated for 30-60 minutes in a 5% CO2 incubator at 37° C. Subsequently, cell proliferation was quantified by measuring fluorescence with an excitation of 485 nm and emission of 530 nm in a VarioSkan Lux Microplate reader (Thermo Fisher). All experiments were performed in quadruple and normalized to mock-treated cells.

[2] = system: PANC-1, Colo205, HT29, and MDMB435 cells; assay: Cell viability assay (MTS); assay type: cell-based, human
Experimental: To further assess the inhibition of cell proliferation, and investigate if cell death is enhanced, cell viability assays were performed using an MTS assay to detect metabolic activity in active cells. For this assay, PANC-1 (FIG. 5A through FIG. 5D), Colo205 (FIG. 5E through FIG. 5H), HT29, and MDMB435 cells were treated with different concentrations of selinexor, infected with MYXB at different MOIs, or treated with a combination of selinexor and MYXB, and cell viability was measured at different time points.
Cell Viability Assay: To assess the viability of different human cancer cells after selinexor treatment or MYXV infection, 10,000 cells were seeded into each well of a 96-well plate. The next day, cells were treated with different concentrations of selinexor, infected with different MOIs of MYXV, or treated with different concentrations of selinexor for 1 hour followed by infection with different MOIs of MYXV. A minimum of four wells were used for each treatment condition, and untreated cells (mock) served as controls. Cell viability was assessed at 24, 48, 72, and 96 hours using an MTS assay.

MYXV [3] = assay: MYXV infection of 3D spheroid cultures of human cancer cells (GFP/TdTomato fluorescence); assay type: cell-based, myxoma virus
Excerpt: In vitro three-dimensional (3D) cell culture allows cells to contact each other and form a platform representing in vivo tumor masses (Lv, D., et al., 2017, Oncology Letters, 14:6999-7010). As an initial test whether selinexor can enhance MYXV replication in tumor masses, a 3D cell culture using type 1 collagen was established. The semi-permissive and non-permissive human cancer cells PANC-1 (FIG. 6A), MDA-MB435 (FIG. 6C), HT29 (FIG. 6E), and Colo205 (FIG. 6G) were used to form 3D spheroids in 96 well plates. After several days of incubation, the cells formed spheroids.
After reaching a desirable size, spheroids were mock-treated or treated with different concentrations of selinexor (e.g., 0.1 μM, 1 μM) for one hour then infected with vMyx-GFP-TdTomato (1×10^7 FFU) in the presence of selinexor.
Spheroid Generation and Virus Infection: Different cancer cell lines were grown and maintained as previously described and used for spheroid generation within 2-5 passages. 96-well plates were prepared with rat tail collagen I to form the surface for spheroid culture. On the day of cell seeding for spheroid generation, the cells were dissociated with TrypLE, the TrypLE neutralized with fresh complete media, the cells spun down, and resuspended in fresh complete media. After making a single cell suspension, cells were counted using a Countess II automated cell counter and 1000 cells in 100 μL were plated on the surface of the collagen matrix. The cells were observed daily for spheroid formation. After 5-7 days, when spheroids reached the desired size, they were treated with selinexor and infected with vMyx-GFP-TdTomato.

[4] = system: Lewis lung carcinoma (LLC1) cells; assay: Lewis lung carcinoma (LLC1) tumor model in immunocompetent C57BL/6 mice; assay type: in vivo; settings: single agents; selinexor 15 mg/kg oral; MYXV expressing IL15/IL15Ra (vMyx-IL15Ra) IT 5×10^7 FFU; left and right tumors
Experimental: To verify that the combination of selinexor and MYXV is effective even in mice with a competent immune system, C57BL/6 mice were inoculated with mouse Lewis lung carcinoma (LLC1) cells (FIG. 14A). LLC1 cells were subcutaneously injected on both sides of the flank in C57BL/6 mice. Mice were separated into treatment groups and treated with PBS, selinexor, MYXV expressing IL15/IL15Ra (IT, 5×10^7), or selinexor+MYXV expressing IL15/IL15Ra.
The tumor burden on each flank was measured twice every week.

O=C(/C=C\n1cnc(-c2cc(C(F)(F)F)cc(C(F)(F)F)c2)n1)NNc1cnccn1 [selinexor]
increase in virus production compared to infection with MYXV alone (MYXV [1]): 10-100 fold | cell proliferation (DNA content) (Colo205 cells): significant reductions in cell proliferation | cell viability ([2]; selinexor 0.5 μM or 1 μM, over time, all cells tested): 50% | cell viability ([2]; selinexor alone 0.1 μM or 0.05 μM): no effect on cell viability; also recorded: almost no effect | GFP (early/late) and TdTomato (late) expression in spheroids by fluorescence microscopy (MYXV [3]; PANC-1, MDA-MB435, HT29, Colo205 spheroids, selinexor 0.1 or 1 μM, vMyx-GFP-TdTomato 1×10^7 FFU): enhanced | virus penetration into spheroids (MYXV [3]; selinexor plus MYXV compared to MYXV infection alone): greater penetration into the spheroid interior | quantification of GFP fluorescence in spheroids (MYXV [3]; selinexor-treated vs untreated infected spheroids, 72-96 h post-infection): significant increase in the level of GFP expression | tumor burden [4]: significantly reduced tumor burden
